Counter-ions that a name gives are not always drawn.
Key:
[1] = Lethal dose of the control drug; assay type: in vivo; settings: control drug of the antitumor test
Protocol: The lethal dose of doxorubicin used as the control drug was 30 mg/kg, and therefore doxorubicin was administered at a dose of 15 mg/kg to perform the antitumor test.

[2] = tested on: Mouse colon cancer, Colon 26; test: Antitumor activity, subcutaneously transplanted Colon 26 in mice; assay type: in vivo, female CDF1 mice; settings: dose 15 mg/kg, once into tail vein
From the text: Mouse colon cancer, Colon 26, maintained by serial subcutaneous subculture in mice, was minced into about 2-mm cubic fragments, and the fragments were subcutaneously transplanted on the dorsal part of female CDF1 mice with a trocar. Eight days after the tumor transplantation, the high-molecular weight conjugate according to the present invention (Compound 2 and Compound 4) or a control drug (Comparative Compound 1 and doxorubicin hydrochloride) was each administered once into the mouse tail vein in a way such that each mouse received the same dose per body weight in terms of doxorubicin. Each compound was dissolved in a 5% liquid glucose for injection and used. After the administration, the major axis (L mm) and the minor axis (W mm) of the tumor were measured using a caliper, and the tumor volume was calculated by the formula (L×W^2)/2.

COc1cccc2c1C(=O)c1c(O)c3c(c(O)c1C2=O)C[C@@](O)(C(=O)CO)C[C@@H]3O[C@H]1C[C@H](N)[C@H](O)[C@H](C)O1 [Doxorubicin, doxorubicin hydrochloride]
lethal dose [1]: 30 mg/kg
relative tumor volume based on the tumor volume on the day of administration ([2]; day 0 after administration): 1.00
relative tumor volume based on the tumor volume on the day of administration ([2]; day 3 after administration): 1.79
relative tumor volume based on the tumor volume on the day of administration ([2]; day 7 after administration): 3.89
relative tumor volume based on the tumor volume on the day of administration ([2]; day 10 after administration): 5.27
relative tumor volume based on the tumor volume on the day of administration ([2]; day 14 after administration): 12.17
